Data taken from patent US20230150986A1, “ANTAGONISTS OF THE MUSCARINIC ACETYLCHOLINE RECEPTOR M4” (Vanderbilt University, priority 2019, published 2023).

Biological target: T1, cytochrome P450 2D6 (Homo sapiens, UniProt P10635)
T1 construct: human liver microsomes (HLM; 0.1 mg/mL); from tissue; host or cells: human liver microsomes
Experiment: Cytochrome P450 cocktail inhibition assay, 2D6 (dextromethorphan)
Assay type: in vitro ADME
Conditions: human liver microsomes 0.1 mg/mL; read-out: CYP Inhibition (2D6)
Experimental: Solutions of substrates for cytochrome P450 enzymes (1A2: Phenacetin, 10 μM; 2C9: Diclofenac, 5 μM; 2D6: Dextromethorphan, 5 μM; 3A4: Midazolam, 2 μM; as a mixture), test compound (VU6028418; multiple concentrations), and the positive control for pan-P450 inhibition (miconazole; multiple concentrations) were prepared. A reaction mixture of assay buffer (100 mM Kpi at pH 7.4), human liver microsomes (HLM; 0.1 mg/mL), and the substrate mixture were aliquoted into a 96-deepwell plate. The test compound and control were then added to the plate such that the final concentration of test compound ranged from 0.1-30 μM (two replicates per concentration). The assay plate was vortexed (briefly) and pre-incubated at 37° C. in an orbital shaker for 15 minutes. The reaction was initiated by addition of NADPH (1 mM, final concentration) and continued for 8 min before it was quenched by acetonitrile (2× volume) containing an LCMS internal standard (carbamazepine, 50 nM). The plate was then centrifuged (4000 rcf, 4° C., 10 min), and the resulting supernatant was diluted with water (1× volume) for LC-MS/MS. Assay samples were analyzed via electrospray ionization on an AB Sciex API-4000 (Foster City, Calif.) triple-quadrupole mass spectrometer coupled to Agilent Technologies 1290 Infinity series pumps (Santa Clara, Calif.), and a Leap Technologies CTC PAL auto -sampler (Carrboro, NC). Analytes were separated by gradient elution on a Phenomenex Kinetex (C18 2.1×50 mm 5 μm) column (Torrance, Calif.) thermostated at 40° C. The HPLC mobile phase A was 0.1% formic acid in water (pH unadjusted), and the mobile phase B was 0.1% formic acid in acetonitrile (pH unadjusted). […] The total run time was 2.5 min and the HPLC flow rate was 0.5 mL/min. The source temperature was set at 500° C. and mass spectral analyses were performed using multiple reaction monitoring (MRM) with mass transitions specific to each substrate's metabolite utilizing a Turbo-Ionspray® source in positive ionization mode (5.0 kV spray voltage). The test compound and control IC50 values for each enzyme were obtained by quantitating the inhibition of metabolite formation for each substrate. A 0 μM test compound (or control) conditions represented 100% enzymatic activity, and the effect of increasing test compound concentrations on enzymatic activity was then calculated from the % of control activity. Inhibition curves were fitted using XLfit 5.2.2 (four-parameter logistic model, equation 201) in order to calculate the concentration that produced half-maximal inhibition (IC50) of each enzyme.

T1 sequence (P10635 whole entry): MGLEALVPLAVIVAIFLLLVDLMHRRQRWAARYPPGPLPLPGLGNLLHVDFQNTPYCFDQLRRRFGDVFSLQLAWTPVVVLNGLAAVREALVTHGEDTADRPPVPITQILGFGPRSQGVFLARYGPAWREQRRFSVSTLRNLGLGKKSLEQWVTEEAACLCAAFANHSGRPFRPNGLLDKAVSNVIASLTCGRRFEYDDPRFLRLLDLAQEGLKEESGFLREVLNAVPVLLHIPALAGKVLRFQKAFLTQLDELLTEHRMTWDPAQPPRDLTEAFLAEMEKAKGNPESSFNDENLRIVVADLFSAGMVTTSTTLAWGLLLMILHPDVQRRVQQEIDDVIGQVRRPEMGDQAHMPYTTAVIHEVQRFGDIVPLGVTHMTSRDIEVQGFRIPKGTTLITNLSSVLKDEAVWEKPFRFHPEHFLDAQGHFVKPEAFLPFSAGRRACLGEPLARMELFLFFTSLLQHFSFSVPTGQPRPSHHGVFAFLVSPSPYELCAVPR

Structure (SMILES) | IC50
Fc1cc(F)c(F)c(-c2ccc(N[C@H]3C[C@@H]4CN(CC5CCOCC5)C[C@@H]4C3)nn2)c1 [Compound 1, (3aR,5s,6aS)-2-((tetrahydro-2H-pyran-4-yl)methyl)-N-(6-(2,3,5-trifluorophenyl)pyridazin-3-yl)octahydrocyclopenta[c]pyrrol-5-amine] | > 30 µM
Fc1cc(F)c(F)c(-c2ccc(N[C@H]3C[C@@H]4CN(Cc5ccccn5)C[C@@H]4C3)nn2)c1 [Compound 2, (3aR,5s,6aS)-2-(pyridin-2-ylmethyl)-N-(6-(2,3,5-trifluorophenyl)pyridazin-3-yl)octahydrocyclopenta[c]pyrrol-5-amine] | > 30 µM
